# In patent publication US9222118B2 (priority 2008, dated 2015):
# Like-named read-outs stand apart in the source and are kept apart here.
# Columns and labels:
# VSVΔG*-Ebolavirus GP = assay type: cell-based
# EbolaΔVP30-GFP virus = assay: microbe, parasite or virus in culture; assay type: cell-based, Zaire ebolavirus; conditions: for % GFP inhibition: 5 µM; for IC50: read-out: IC50; for inhibition at 5 µM: Zaire ebolavirus, read-out: % GFP inhibition
# EbolaΔVP30-GFP = assay type: cell-based, Zaire ebolavirus
# Ebolavirus minigenome = assay type: cell-based
Molecule,% GFP inhibition (EbolaΔVP30-GFP virus),% cell viability (VeroVP30 cells),further results
"1,2alpha-Epoxy-7-Deacetoxy-7-Oxo-Deoxyhydrogedunin",75%,,% infectivity of VSVΔG*-Ebolavirus GP (VSVΔG*-Ebolavirus GP): 6.5±1.6%; CC50 (VeroVP30 cells): > 10 µM; IC50 (EbolaΔVP30-GFP virus): 7120 nM
"1-Deacetoxy-1-oxo-3,7-dideacetylkhivorin",19%,94%,
3beta-Hydroxydeoxydesacetoxy-7-oxogedunin,75%,81%,
6-Hydroxyangolensic acid methyl ester,15%,94%,
7-Deacetoxy-3-deacetyl-7-oxokhivorin,92%,80%,CC50 (VeroVP30 cells): > 10 µM; IC50 (EbolaΔVP30-GFP virus): 560 nM
7-Deacetyldihydrogedunin,−30%,85%,
11alpha-Acetoxykhivorin,−47%,93%,
17-Allylamino-17-demethoxygeldanamycin [17-AAG],,,reduction of EbolaΔVP30 virus growth (EbolaΔVP30-GFP): 92%; Infectivities of VSVΔG*-Ebolavirus GP standardized by the infectivities of VSVΔG*-VSV G (VSVΔG*-Ebolavirus GP; 10 μM): 110%; % luc activity from the Ebolavirus minigenome (Ebolavirus minigenome): 7.9%±1.5%
"CC1(C)C(=O)[C@@H]2O[C@@H]2[C@@]2(C)C1C[C@@H](O)[C@]1(C)C2CC[C@@]2(C)[C@H](c3ccoc3)OC(=O)C3OC321 (stereo partly drawn) [1,2alpha-Epoxydeacetoxydihydrogedunin]",75%,77%,
"CC1(C)C2CC(=O)[C@]3(C)C(CC[C@@]4(C)[C@H](c5ccoc5)OC(=O)C5OC543)[C@@]2(C)[C@@H](O)C[C@H]1O (stereo partly shown) [1,3-Dideacetyl-7-deacetoxy-7-oxokhivorin]",100%,78%,CC50 (VeroVP30 cells): > 10 µM; IC50 (EbolaΔVP30-GFP virus): < 150 nM
"CC(=O)O[C@@H]1C[C@H]2C(C)(C)[C@H](O)C[C@H](O)[C@]2(C)[C@H]2CC[C@@]3(C)[C@H](c4ccoc4)OC(=O)[C@H]4O[C@]43[C@@]21C [1,3-Dideacetylkhivorin]",82%,78%,
"CC1(C)C2CC(=O)[C@]3(C)C(CC[C@@]4(C)[C@H](c5ccoc5)OC(=O)[C@H]5O[C@]543)[C@@]2(C)C(=O)C[C@H]1O (stereo partly shown) [1,7-Dideacetoxy-1,7-dioxo-3-deacetylkhivorin]",14%,87%,
"CC(=O)O[C@@H]1CC(=O)[C@@]2(C)C(CC(=O)[C@]3(C)C2CC[C@@]2(C)[C@H](c4ccoc4)OC(=O)C4OC423)C1(C)C (stereo partly shown) [1,7-Dideacetoxy-1,7-dioxokhivorin]",39%,88%,
"CC(=O)O[C@@H]1C[C@H]2C(C)(C)CCC(=O)[C@]2(C)[C@H]2CC[C@@]3(C)[C@H](c4ccoc4)OC(=O)[C@H]4O[C@]43[C@@]21C [2,3-Dihydroisogedunin]",−17%,91%,
CC(=O)O[C@H]1C[C@@H](O)C(C)(C)[C@@H]2C[C@@H](OC(C)=O)[C@]3(C)[C@H](CC[C@@]4(C)[C@@H](c5ccoc5)OC(=O)[C@H]5O[C@@]534)[C@@]12C [3-Deacetylkhivorin],6%,102%,
CC(=O)O[C@@H]1CC2C(C)(C)[C@H](O)CC[C@]2(C)C2CC[C@@]3(C)[C@H](c4ccoc4)OC(=O)C4OC43[C@@]21C (stereo partly drawn) [3alpha-Hydroxydeoxodihydrogedunin],85%,94%,
CC(=O)O[C@H]1CC[C@]2(C)[C@H]3CC[C@@]4(C)[C@H](c5ccoc5)OC(=O)[C@H]5O[C@]54[C@]3(C)[C@H](OC(C)=O)C[C@H]2C1(C)C [3beta-Acetoxydeoxodihydrogedunin],90%,80%,
CC(=O)OC1CC2C(C)(C)[C@@H](O)CC[C@]2(C)C2CC[C@]3(C)[C@H](c4ccoc4)OC(=O)[C@H]4O[C@]43[C@]12C (stereo partly drawn) [3beta-Hydroxydeoxodihydrogedunin],75%,79%,
C=C1C2CC[C@@]3(C)[C@H](c4ccoc4)OC(=O)C[C@]13O[C@H]1CC(=O)C(C)(C)[C@H](C(OC(C)=O)C(=O)OC)[C@@]21C (stereo partly shown) [6-Acetoxyangolensic acid methyl ester],32%,88%,
CC(=O)O[C@H]1C[C@@H](OC(C)=O)C(C)(C)C2CC(=O)[C@]3(C)C(CC[C@@]4(C)[C@H](c5ccoc5)OC(=O)[C@H]5O[C@]543)[C@]21C (stereo partly shown) [7-Deacetoxy-7-oxokhivorin],26%,90%,

Molecule,% GFP inhibition (EbolaΔVP30-GFP virus),% cell viability (VeroVP30 cells),further results
CC(=O)O[C@H]1C[C@@H](OC(C)=O)C(C)(C)C2C[C@@H](O)[C@]3(C)C(CC[C@@]4(C)[C@H](c5ccoc5)OC(=O)[C@H]5O[C@]543)[C@]21C (stereo partly shown) [7-Deacetylkhivorin],13%,91%,
"CC1(C)C(=O)C=C[C@]2(C)[C@H]3CC[C@@]4(C)[C@H](c5ccoc5)OC(=O)[C@H]5O[C@]54[C@]3(C)C=C[C@@H]12 [7-Desacetoxy-6,7-dehydrogedunin]",2%,70%,
CC(=O)OC1CC(OC(C)=O)C2(C)C(CC(OC(C)=O)C3(C)C2CCC2(C)C(c4ccoc4)OC(=O)C4OC423)C1(C)C (stereo not shown) [7-Epikhivorin],4%,79%,
"NS(=O)(=O)c1nn2cc(-c3ccccc3)nc2s1 [AEG 3482, 6-Phenylimidazo[2,1-b]-1,3,4-thiadiazole-2-sulfonamide]",,,reduction of EbolaΔVP30 virus growth (EbolaΔVP30-GFP): 5%; Infectivities of VSVΔG*-Ebolavirus GP standardized by the infectivities of VSVΔG*-VSV G (VSVΔG*-Ebolavirus GP; 10 μM): 135%; % luc activity from the Ebolavirus minigenome (Ebolavirus minigenome): 34.0%±8.0%
C=C1[C@@H]([C@@]2(C)C=CC(=O)C(C)(C)[C@@H]2CC(=O)OC)CC[C@@]2(C)[C@H](c3ccoc3)OC(=O)[C@H]3O[C@]132 [Andirobin],,,% cell viability (VeroVP30 cells; green monkey): 91%; inhibition at 5 µM (EbolaΔVP30-GFP virus): -12%
"C=C1[C@@H]2CC[C@@]3(C)[C@H](c4ccoc4)OC(=O)C[C@]13O[C@H]1CC(=O)C(C)(C)[C@H](CC(=O)OC)[C@]12C [Angolensic acid, methyl ester]",4%,85%,
"CCc1cc(-c2n[nH]c(C)c2-c2ccc3c(c2)OCCO3)c(O)cc1O [CCT 018159, 4-[4-(2,3-Dihydro-1,4-benzodioxin-6-yl)-5-methyl-1H-pyrazol-3-yl]-6-ethyl-1,3-benzenediol]",,,reduction of EbolaΔVP30 virus growth (EbolaΔVP30-GFP): 97%; effect on VSVΔG*-Ebolavirus GP infectivity (VSVΔG*-Ebolavirus GP): slightly reduced; Infectivities of VSVΔG*-Ebolavirus GP standardized by the infectivities of VSVΔG*-VSV G (VSVΔG*-Ebolavirus GP; 10 μM): 71%; reduction in Ebolavirus GP-dependent virus infection (VSVΔG*-Ebolavirus GP; 10 μM): ~30%; % luc activity from the Ebolavirus minigenome (Ebolavirus minigenome): 8.8%±2.6%
CC1(C)C=CC(=O)[C@@]2(C)C1CC(=O)[C@]1(C)C2CC[C@@]2(C)[C@H](c3ccoc3)OC(=O)C3OC321 (stereo partly shown) [Deacetoxy-7-oxisogedunin],41%,84%,
CC1(C)C(=O)C=C[C@]2(C)[C@H]3CC[C@@]4(C)[C@H](c5ccoc5)OC(=O)[C@H]5O[C@]54[C@]3(C)C(=O)C[C@@H]12 [Deacetoxy-7-oxogedunin],80%,79%,
CC1(C)C(=O)C=C[C@]2(C)[C@H]3CC[C@@]4(C)[C@H](c5ccoc5)OC(=O)[C@H]5O[C@]54[C@]3(C)[C@H](O)C[C@@H]12 [Deacetylgedunin],,,% cell viability (VeroVP30 cells; green monkey): 86%; anti-Ebolavirus activity (EbolaΔVP30-GFP virus): did not show any anti-Ebolavirus activity; inhibition at 5 µM (EbolaΔVP30-GFP virus): 45%
CC(=O)O[C@@H]1C[C@H]2C(C)(C)C(=O)CC[C@]2(C)[C@H]2CC[C@@]3(C)[C@H](c4ccoc4)OC(=O)[C@H]4O[C@]43[C@@]21C [Dihydrogedunin],,,% cell viability (VeroVP30 cells; green monkey): 79%; inhibition at 5 µM (EbolaΔVP30-GFP virus): 96%
CCC(C)C(=O)O[C@@H]1C[C@@]2(C)[C@H](c3ccoc3)OC(=O)CC23OC2(C)OC34[C@H](OC(=O)C(C)C)[C@@]3(O)[C@@H](OC(=O)C5(C)OC5C)[C@@]5(C)C[C@]3(O)[C@@](C)([C@H]5CC(=O)OC)C14O2 (stereo partly shown) [Entandrophragmin],−12%,83%,
CC(=O)O[C@@H]1CC2C(C)(C)C(=O)C3OC3[C@]2(C)C2CC[C@@]3(C)[C@H](c4ccoc4)OC(=O)C4OC43[C@@]21C (stereo partly shown) [Epoxygedunin],103%,71%,inhibition of EbolaΔVP30-GFP growth (EbolaΔVP30-GFP): completely inhibited; CC50 (VeroVP30 cells): > 10 µM; % luc activity from the Ebolavirus minigenome (Ebolavirus minigenome): 1.0%±0.1%; effect on protein expression from the Ebolavirus minigenome (Ebolavirus minigenome): inhibit protein expression from the Ebolavirus minigenome; IC50 (EbolaΔVP30-GFP virus): < 150 nM
CC(=O)O[C@@H]1CC2C(C)(C)[C@H](O)C=C[C@]2(C)C2CC[C@@]3(C)[C@H](c4ccoc4)OC(=O)C4OC43[C@@]21C (stereo partly shown) [Gedunol],79%,82%,
CCC(C)C(OC(C)=O)C(=O)O[C@H]1[C@H](O)[C@@H]2[C@@]3(C)C=CC(=O)C(C)(C)[C@@H]3C[C@@H](OC(=O)C(O)C(C)C)[C@@]2(C)[C@@]23O[C@@H]2C[C@@H](c2ccoc2)[C@]13C (stereo partly shown) [Heudelottin C],104%,5%,
CC(=O)O[C@@H]1CC2C(C)(C)C=CC(=O)[C@]2(C)C2CC[C@@]3(C)[C@H](c4ccoc4)OC(=O)C4OC43[C@@]21C (stereo partly shown) [Isogedunin],35%,86%,
CC(=O)O[C@H]1C[C@@H](OC(C)=O)C(C)(C)[C@@H]2C[C@@H](OC(C)=O)[C@]3(C)[C@H](CC[C@@]4(C)[C@H](c5ccoc5)OC(=O)[C@H]5O[C@@]534)[C@@]12C [Khivorin],,,% cell viability (VeroVP30 cells; green monkey): 82%; inhibition at 5 µM (EbolaΔVP30-GFP virus): 0%
C=C1[C@@H]([C@@]2(C)[C@@H](OC(C)=O)CC(=O)O[C@](C)(COC(C)=O)[C@@H]2C(=O)OC)[C@@H](OC=O)[C@H](OC(=O)[C@H](O)[C@H](C)CC)[C@@]2(C)[C@H](c3ccoc3)CC(=O)[C@]12O [Prieurianin],,,% cell viability (VeroVP30 cells; green monkey): 89%; inhibition at 5 µM (EbolaΔVP30-GFP virus): -17%
CCC(C)C(=O)O[C@@H]1C[C@@]2(C)[C@H](c3ccoc3)OC(=O)CC23OC2(C)O[C@]14[C@]1(C)[C@@H](CC(=O)OC)C5(C)CC1(O)[C@](O)(C5OC(=O)C1(C)OC1C)[C@@H](OC(C)=O)[C@]34O2 (stereo partly shown) [Utilin],,,% cell viability (VeroVP30 cells; green monkey): 75%; inhibition at 5 µM (EbolaΔVP30-GFP virus): 4%
Heudelottin E,−49%,93%,
